# Test results published in patent US7678386B2, “Liposomes coated with selected antibodies that bind to aminophospholipids” (Board of Regents the University of Texas, priority 2002, dated 2010).
# Experiments:
# ABAE cells = experiment: Detection of PS on cultured endothelial cells by 125I-labeled annexin V; type: cell-based, bovine; settings: for 125I-Annexin V (% of Max binding), ABAE cells: 24 h, concentration as listed per treatment; for anionic phospholipid-exposure (% of the maximum): ABAE cells, hypoxia/reoxygenation in the presence of sub-toxic cytokine
# Protocol: (§1) All reagents were diluted in medium containing 10% serum and incubated with the cells at 37° C. for 24 h.
# (§2) To study the effect of hypoxia, cells were seeded on 24 well plates and were incubated in a humidified normoxic atmosphere (21% O2. 5% CO2) for 48 h before being transferred to a humidified hypoxic atmosphere (1% O2, 5% CO2, 94% N2) in a sealed chamber (Billups Rothenberg Inc., Del Mar, Calif.). Cells were incubated in a hypoxic chamber for 24 h at 37° C. and were then returned to a normoxic environment for 4 h at 37° C. The cells were compared to a parallel culture from an identical passage, seeded on the same day and maintained entirely under normoxic conditions. In some studies, IL-1α (10 ng/ml) and TNFα (20 ng/ml) were added to the medium before transfer to the hypoxic chamber.
# (§3) After treatment with the reagents described above, treated and control cells were incubated with 7.1 pmoles of ^125I-labeled annexin V (200 μl/well) in the binding buffer. After 2 h incubation at room temperature, cells were washed extensively and dissolved in 0.5 M of NaOH. The entire volume of 0.5 ml was transferred to plastic tubes and counted in a gamma counter. Non-specific binding was determined in the presence of 5 mM EDTA and was subtracted from experimental values. The results were expressed as net pmoles of cell-bound annexin V, normalized per 1×10^6 cells.
# (§4) Maximal binding of annexin V was determined on cells simultaneously treated with actinomycin D and TNFα (50 ng/ml of each component). As has been previously reported, these agents cause apoptosis and PS exposure in 90-100% of endothelial cells (Lucas et al., 1998). Basal binding of ^125I-annexin V to untreated cells was determined in the presence of medium with 10% serum. The amount of ^125I-annexin V that bound to the untreated cultures was subtracted from that in the treated cultures. Exposure of PS was calculated according to the following formula: cell-bound annexin V (pmoles) under experimental conditions divided by maximal annexin V binding (pmoles), multiplied by 100. Each study was performed in duplicate and was performed at least three times. Mean values were calculated. The SE of the mean values from three separate experiments was less than 5%.
# bEnd.3 cells = experiment: as above; type: cell-based, mouse; settings: for 125I-Annexin V (% of Max binding), bEnd.3 cells: 24 h, concentration as listed per treatment
# Protocol: as §1, §2, §3, §4
# HUVEC and HMVEC = experiment: Induction of PS exposure on endothelial cells by docetaxel (FACS, 3G4 binding); type: cell-based, human; settings: 10 nM, 24 hrs
# Protocol: (§5) FIG. 24A and FIG. 24B. Induction of PS exposure on endothelial cells by docetaxel. Human umbilical vein endothelial cells (HUVEC) and human microvessel endothelial cells (HMVEC) were treated with 10 nM of docetaxel for 24 hrs. […] The cells were then washed twice, FITC labeled goat anti-mouse IgG was added and the cells incubated for a further 30 mins. on ice. The cells were then washed and analyzed by FACS using a FACSCalibur cytometer (Becton-Dickinson, San Jose, Calif.) with CellQuest acquisition software.
# (§6) The induction of PS exposure on endothelial cells by subclinical concentrations of docetaxel was examined in vitro by FACS analysis. Human umbilical vein endothelial cells (HUVEC) and human microvessel endothelial cells (HMVEC) were treated with 10 nM of docetaxel for 24 hrs and examined by FACS. […] Docetaxel incubations for 48 and 72 hrs were also conducted.
# tumor cell lines = experiment: Induction of PS exposure on tumor cell lines by docetaxel (FACS); type: cell-based; settings: 10 nM, 24 hrs
# Protocol: as §5, with “25A, FIG. 25B” for “24A”, “25C.” for “24B.”, “tumor cell lines” for “endothelial cells”, “Mouse lewis lung carcinoma 3LL, mouse colon carcinoma Colo26” for “Human umbilical vein endothelial cells (HUVEC)”, “breast cancer MDA-MB-435” for “microvessel endothelial”, “cells” for “cells (HMVEC)”
# FIG. 26. Induction of PS exposure on human breast cancer MDA-MB-231 cells by docetaxel. Human breast cancer MDA-MB-231 cells were treated with 10 nM of docetaxel for 24 hrs. […] The cells were then washed twice, FITC labeled anti-IgG was added and the cells analyzed by FACS, as above. There is a significant increase in ch3G4 binding as compared to control, human IgG.
# (§7) The in vitro induction of PS exposure by subclinical concentrations of docetaxel was also examined by FACS analysis using a panel of tumor cell lines. Mouse lewis lung carcinoma 3 LL, mouse colon carcinoma Colo26 and human breast cancer MDA-MB-435 cells were treated with 10 nM of docetaxel for 24 hrs and examined by FACS. […] Docetaxel incubations for 48 and 72 hrs were also conducted.
# [1] = test system: human umbilical vein endothelial cells (HUVEC); experiment: PS exposure on endothelial cells by FACS (3G4 binding), HUVEC; type: cell-based; settings: 10 nM docetaxel, 24 hrs, compared to untreated cells
# Protocol: as §6
# [2] = test system: human microvessel endothelial cells (HMVEC); experiment: PS exposure on endothelial cells by FACS (3G4 binding), HMVEC; type: cell-based; settings: 10 nM docetaxel, 24 hrs, compared to untreated cells
# Protocol: as §6
# [3] = test system: Mouse lewis lung carcinoma 3 LL; experiment: PS exposure on tumor cells by FACS (3G4 binding), 3LL; type: cell-based; settings: 3 LL cells, 10 nM docetaxel, 24 hrs, compared with untreated cells
# Protocol: as §7
# [4] = test system: mouse colon carcinoma Colo26; experiment: PS exposure on tumor cells by FACS (3G4 binding), Colo26; type: cell-based; settings: 10 nM docetaxel, 24 hrs, compared with untreated cells
# Protocol: as §7
# [5] = test system: human breast cancer MDA-MB-435 cells; experiment: PS exposure on tumor cells by FACS (3G4 binding), MDA-MB-435; type: cell-based; settings: 10 nM docetaxel, 24 hrs, compared with untreated cells
# Protocol: as §7
# Mouse melanoma B16 = experiment: PS exposure on tumor cells by FACS (3G4 binding), B16; type: cell-based; settings: docetaxel, compared with untreated cells
# [6] = test system: mouse firbrosarcoma Meth A; experiment: PS exposure on tumor cells by FACS (3G4 binding), Meth A; type: cell-based; settings: docetaxel, compared with untreated cells
# [7] = breast cancer patients; cited from earlier work
# [8] = patients having progressive disease before treatment; cited from earlier work
# bEnd.3 endothelial cells = experiment: Induction of PS by H2O2: anti-PS IgM staining and Trypan Blue exclusion
Molecule,"125I-Annexin V (% of Max binding), ABAE cells (ABAE cells)","125I-Annexin V (% of Max binding), bEnd.3 cells (bEnd.3 cells)",further results
TGF β1: growth factor,0%,0%,–
FGF-2: human fibroblast growth factor-2,0%,0%,–
IL-6: interleukin-6,0%,0%,–
IL-8: interleukin-8,0%,0%,–
IL-10: interleukin-10,0%,0%,–
CC(=O)O[C@@]12CO[C@@H]1C[C@H](O)[C@@]1(C)C(=O)[C@H](O)C3=C(C)[C@@H](OC(=O)[C@H](O)[C@@H](NC(=O)OC(C)(C)C)c4ccccc4)C[C@@](O)([C@@H](OC(=O)c4ccccc4)[C@H]21)C3(C)C [docetaxel],–,–,"3G4 binding vs. untreated cells (HUVEC and HMVEC; HMVEC): significant increase in 3G4 binding; 3G4 binding vs. untreated cells (HUVEC and HMVEC; HUVEC): significant increase in 3G4 binding; 3G4 binding vs. untreated cells (tumor cell lines; 3LL, Colo26, MDA-MB-435 cells): significant increase in 3G4 binding; antibody (ch3G4) binding to treated cells (tumor cell lines; MDA-MB-231, vs. human IgG): significant increase in antibody binding; 3G4 binding by FACS (PS exposure) [1]: significant increase in 3G4 binding; 3G4 binding by FACS (PS exposure) [2]: significant increase in 3G4 binding; 3G4 binding by FACS (PS exposure) [3]: significant increase in 3G4 binding; 3G4 binding by FACS (PS exposure) [4]: significant increase in 3G4 binding; 3G4 binding by FACS (PS exposure) [5]: significant increase in 3G4 binding; 3G4 binding by FACS (PS exposure) (Mouse melanoma B16): significant increase in 3G4 binding; 3G4 binding by FACS (PS exposure) [6]: significant increase in 3G4 binding; serum cytokine levels and NK/LAK cell activity [7]: increase in serum IFN-γ, IL-2, IL-6 and GM-CSF cytokine levels and enhancement of NK and LAK cell activity"
"NC(=O)c1nnn(Cc2cc(Cl)c(C(=O)c3ccc(Cl)cc3)c(Cl)c2)c1N [CAI, carboxyamidotriazole]",–,–,cancer patients with disease stabilization [8]: 49%
Hypoxia + IL-1α: IL-1α (10 ng/ml) under hypoxia/reoxygenation,26.0%,31.0%,–
Scatter factor: recombinant hepatocyte growth factor (HGF or scatter factor),0%,0%,–
Interferon,8.6%,2.8%,–
TNFα,7.4%,13.7%,anionic phospholipid-exposure (% of the maximum) (ABAE cells): 33%
"OO [Hydrogen peroxide, hydrogen peroxide]",95.5%,98.4%,"externalization of PS by 125I-annexin V binding (ABAE cells; 100 to 200 μM, both cell types): 95%; cells that bound biotinylated annexin V (immunohistochemically) (ABAE cells; ABAE and bEnd.3 cells, 100 to 200 μM): More than 70%; cells with translocation of anionic phospholipids to the external surface (125I-labeled annexin V) (bEnd.3 cells; 200 μM for 2 h): 70-90%; cells with PS detected at the cell surface (bEnd.3 endothelial cells; concentrations as low as 20 μM): about 50%; cell viability (bEnd.3 endothelial cells; high concentrations, 1 hour): 50-60%; cells with PS translocation (bEnd.3 endothelial cells; high concentrations, 1 hour): ~90%; cell viability (bEnd.3 endothelial cells; low levels of H2O2, identical to untreated cells): 95%"
VEGF,0%,0%,–
Thrombin,8.8%,17.4%,–
"IL-1α: recombinant murine interleukin-1 alpha (protein, UniProt P01582 115-270, looked up) Interleukin-1 alpha: SAPYTYQSDLRYKLMKLVRQKFVMNDSLNQTIYQDVDKHYLSTTWLNDLQQEVKFDMYAYSSGGDDSKYPVTLKISDSQLFVSAQGEDQPVLLKELPETPKLITGSETDLIFFWKSINSKNYFTSAAYPELFIATKEQSRVHLARGLPSMTDFQIS",6.4%,7.5%,anionic phospholipid-exposure (% of the maximum) (ABAE cells): 26%
"IL-1β: recombinant murine interleukin-1 beta (protein, UniProt P10749 118-269, looked up) Interleukin-1 beta: VPIRQLHYRLRDEQQKSLVLSDPYELKALHLNGQNINQQVIFSMSFVQGEPSNDKIPVALGLKGKNLYLSCVMKDGTPTLQLESVDPKQYPKKKMEKRFVFNKIEVKSKVEFESAEFPNWYISTSQAEHKPVFLGNNSGQDIIDFTMESVSS",5.8%,5.5%,–
